Experimental data reported in patent US11787802B2, “Dihydrobenzimidazolones for medical treatment” (C4 Therapeutics, Inc., priority 2017, dated 2023).

biological target: hCereblon(M1-L442)_hDDB1(M1-H1140) (Homo sapiens (Human), UniProt Q96SW2); test: Fluorescence direct binding protocol (tryptophan fluorescence titration); details: fluorescence titration at 20° C., excited at 280 nm, recorded at 340 nm; protein 5.0 E−8 M; assay buffer 50 mM Hepes 7.4 200 mM NaCl; read-out: Fluorescence h-Cereblon_DDB1 Mean Kd_EQ
Sequence (Q96SW2 whole entry): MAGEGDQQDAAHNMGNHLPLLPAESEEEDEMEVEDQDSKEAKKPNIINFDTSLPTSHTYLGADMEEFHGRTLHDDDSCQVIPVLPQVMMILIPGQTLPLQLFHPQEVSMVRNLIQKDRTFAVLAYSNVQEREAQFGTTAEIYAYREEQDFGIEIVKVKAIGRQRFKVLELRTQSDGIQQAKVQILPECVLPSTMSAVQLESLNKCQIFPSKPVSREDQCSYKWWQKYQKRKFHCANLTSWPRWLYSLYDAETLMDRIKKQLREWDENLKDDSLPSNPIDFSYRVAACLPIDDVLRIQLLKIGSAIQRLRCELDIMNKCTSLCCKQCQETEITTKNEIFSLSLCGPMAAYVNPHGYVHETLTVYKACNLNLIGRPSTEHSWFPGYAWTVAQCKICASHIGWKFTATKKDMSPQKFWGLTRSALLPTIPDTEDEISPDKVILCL
Sequence (Q16531 whole entry partner): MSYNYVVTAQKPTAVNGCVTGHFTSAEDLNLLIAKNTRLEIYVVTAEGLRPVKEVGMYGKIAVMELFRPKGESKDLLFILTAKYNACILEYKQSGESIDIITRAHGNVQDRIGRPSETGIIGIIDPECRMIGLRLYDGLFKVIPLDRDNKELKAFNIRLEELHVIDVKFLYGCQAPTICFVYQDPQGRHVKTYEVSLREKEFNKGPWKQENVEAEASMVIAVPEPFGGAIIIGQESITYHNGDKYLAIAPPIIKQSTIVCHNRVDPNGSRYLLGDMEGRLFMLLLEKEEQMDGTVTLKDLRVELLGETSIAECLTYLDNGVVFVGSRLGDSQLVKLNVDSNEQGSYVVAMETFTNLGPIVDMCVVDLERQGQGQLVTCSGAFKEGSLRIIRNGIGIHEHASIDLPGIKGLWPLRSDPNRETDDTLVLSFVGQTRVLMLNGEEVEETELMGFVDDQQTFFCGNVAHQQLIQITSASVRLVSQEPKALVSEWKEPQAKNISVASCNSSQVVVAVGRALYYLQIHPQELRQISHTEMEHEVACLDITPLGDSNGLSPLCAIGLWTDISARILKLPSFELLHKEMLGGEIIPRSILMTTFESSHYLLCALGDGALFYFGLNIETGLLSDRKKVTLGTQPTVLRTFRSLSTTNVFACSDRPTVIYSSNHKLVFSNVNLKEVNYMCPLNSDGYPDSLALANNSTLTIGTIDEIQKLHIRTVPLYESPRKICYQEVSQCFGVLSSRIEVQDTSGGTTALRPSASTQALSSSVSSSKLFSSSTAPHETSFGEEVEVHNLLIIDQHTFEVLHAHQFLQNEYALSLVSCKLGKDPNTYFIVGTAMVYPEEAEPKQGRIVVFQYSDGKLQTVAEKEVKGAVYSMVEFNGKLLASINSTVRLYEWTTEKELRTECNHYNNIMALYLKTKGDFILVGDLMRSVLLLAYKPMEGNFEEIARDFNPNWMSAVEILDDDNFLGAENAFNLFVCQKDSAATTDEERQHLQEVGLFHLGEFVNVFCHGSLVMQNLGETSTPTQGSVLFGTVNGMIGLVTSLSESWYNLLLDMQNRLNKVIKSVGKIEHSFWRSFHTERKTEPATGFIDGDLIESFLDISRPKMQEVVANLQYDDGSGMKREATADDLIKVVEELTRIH
Description: Fluorescence Direct Binding Protocol
Determination of the affinities of compounds to protein containing one or more tryptophan is measurable by monitoring the fluorescence emission in direct mode. The measurements depending on the protein available amounts are performed either manually in a cuvette on ISS-PC1 photon counting spectrofluorometer or automatically in well plates on a fluorescence plate reader device. Fluorescence titrations are performed at 20° C. in the chosen binding assay buffer by using a defined constant protein concentration against ligand concentration variations. Small aliquots of known ligand concentration solubilized in DMSO were added and the fluorescence, excited at 280 nm, was recorded at 340 nm. The fluorescence intensity was corrected for protein dilution and for the filter effect (Birdsall et al.^69). The corrected fluorescence intensity was plotted against the ligand concentration and fitted using a four-parameter sigmoidal function, from which the equilibrium dissociation constant Kd was computed using the law of mass action assuming a 1:1 protein-ligand complex (Eftink, 1997^70).
Process • 1) Optimization of measurement parameters to minimize protein consumption and to minimize the dilution effect and the DMSO content • 2) Titration measurements of the protein against ligand by at least 12 titration steps to obtain a good s-curve fit • 3) Repeat the same titration measurements with the ligand alone to enable correction • 4) Check the stability of the protein once by titration against DMSO alone • 5) Determination of the molar extinction coefficients of the ligand at 280 and 340 nm with help of an UV-spectrophotometer • 6) Use Excel template for the correction of the measured raw data • 7) Use GraphPad Prism software for the quadratic binding fit and the KD evaluation.

| SMILES | Kd [nM] |
| --- | --- |
| CNC(=O)c1ccc(Nc2ccc3[nH]c(=O)[nH]c3c2)c(N)c1 [Example 1, 3-Amino-N-methyl-4-[(2-oxo-1,3-dihydrobenzimidazol-5-yl)amino]benzamide] | 587 |
| CNC(=O)c1ccc2c(c1)nc(-c1ccnc3ccccc13)n2-c1ccc2[nH]c(=O)[nH]c2c1 [Example 3, N-Methyl-2′-oxo-2-(quinolin-4-yl)-2′,3′-dihydro-1′H-[1,5′-bibenzo[d]imidazole]-5-carboxamide] | 39 |
| CCc1nc2cc(C(=O)NC)ccc2n1-c1ccc2[nH]c(=O)[nH]c2c1 [Example 4, 2-Ethyl-N-methyl-2′-oxo-2′,3′-dihydro-1′H-[1,5′-bibenzo[d]imidazole]-5-carboxamide] | 36 |
| CNC(=O)c1ccc2c(c1)nc(C)n2-c1ccc2[nH]c(=O)[nH]c2c1 [Example 5, N,2-Dimethyl-2′-oxo-2′,3′-dihydro-1′H-[1,5′-bibenzo[d]imidazole]-5-carboxamide] | 180 |
| COC(=O)c1ccc(Nc2ccc3[nH]c(=O)[nH]c3c2)c(N)c1 [Example 9, Methyl 3-amino-4-((2-oxo-2,3-dihydro-1H-benzo[d]imidazol-5-yl)amino)benzoate] | 29 |
| CNC(=O)c1ccc2c(c1)nc(-c1ccccc1)n2-c1ccc2[nH]c(=O)[nH]c2c1 [Example 10, N-Methyl-2′-oxo-2-phenyl-2′,3′-dihydro-1′H-[1,5′-bibenzo[d]imidazole]-5-carboxamide] | 88 |
| CCCc1nc2cc(C(=O)NC)ccc2n1-c1ccc2[nH]c(=O)[nH]c2c1 [Example 14, N-Methyl-2′-oxo-2-propyl-2′,3′-dihydro-1′H-[1,5′-bibenzo[d]imidazole]-5-carboxamide] | 321 |
| CNC(=O)c1ccc2c(c1)nc(-c1cnc[nH]1)n2-c1ccc2[nH]c(=O)[nH]c2c1 [Example 15, 2-(1H-Imidazol-4-yl)-N-methyl-2′-oxo-2′,3′-dihydro-1′H-[1,5′-bibenzo[d]imidazole]-5-carboxamide] | 49 |
| CNC(=O)c1ccc2c(c1)nc(C(C)C)n2-c1ccc2[nH]c(=O)[nH]c2c1 [Example 16, 2-Isopropyl-N-methyl-2′-oxo-2′,3′-dihydro-1′H-[1,5′-bibenzo[d]imidazole]-5-carboxamide] | 11 |
| CNC(=O)c1ccc2c(c1)nc(-c1cc(-c3cncn3C)nc3ccccc13)n2-c1ccc2c(c1)n(C)c(=O)n2C [Example 17, N,1′,3′-Trimethyl-2-(2-(1-methyl-1H-imidazol-5-yl)quinolin-4-yl)-2′-oxo-2′,3′-dihydro-1′H-[1,5′-bibenzo[d]imidazole]-5-carboxamide] | 42 |
| O=c1[nH]c2ccc(-c3cccnc3)cc2[nH]1 [Example 19, 5-(Pyridin-3-yl)-1H-benzo[d]imidazol-2(3H)-one] | 7 |
| O=c1[nH]c2ccc(-c3ccnc(Cl)c3)cc2[nH]1 [Example 20, 5-(2-Chloropyridin-4-yl)-1H-benzo[d]imidazol-2(3H)-one] | 68 |
| Cn1c(=O)[nH]c2ncc(C(=O)Nc3ccccc3)cc21 [Example 27, 1-Methyl-2-oxo-N-phenyl-3H-imidazo[4,5-b]pyridine-6-carboxamide] | 1 |
| CNC(=O)c1ccc2nc(C(C)C)n(-c3ccc4[nH]c(=O)[nH]c4c3)c2c1 [Example 30, 2-Isopropyl-N-methyl-2′-oxo-2′,3′-dihydro-1′H-[1,5′-bibenzo[d]imidazole]-6-carboxamide] | 1 |
| O=C1CCCN1c1ccc2[nH]c(=O)[nH]c2c1 [Example 33, 5-(2-Oxopyrrolidin-1-yl)-1,3-dihydro-2H-benzo[d]imidazol-2-one] | 24 |
| CC(C)c1nc2ccccc2n1-c1ccc2[nH]c(=O)n(C)c2c1 [Example 35, 2-Isopropyl-3′-methyl-1′,3′-dihydro-2′H-[1,5′-bibenzo[d]imidazol]-2′-one] | 24 |
| O=c1[nH]c2cnc(-c3ccc(F)cc3)cc2[nH]1 [Example 36, 6-(4-Fluoro-phenyl)-1,3-dihydro-imidazo[4,5-c]pyridin-2-one] | 77 |
| O=c1[nH]c2ccc(-c3cc(F)ccc3F)cc2[nH]1 [Example 37, 5-(2,5-Difluoro-phenyl)-1,3-dihydro-benzoimidazol-2-one] | 10 |
| O=c1[nH]c2ccc(-c3ccc(F)cc3F)cc2[nH]1 [Example 38, 5-(2,4-Difluoro-phenyl)-1,3-dihydro-benzoimidazol-2-one] | 82 |
| COc1ccc(Cc2ccc3[nH]c(=O)[nH]c3c2)cc1 [Example 39, 5-[(4-Methoxyphenyl)methyl]-1,3-dihydrobenzimidazol-2-one] | 6 |

Further compounds by falling Kd, results first:

| Kd [nM] | SMILES |
| --- | --- |
| 111 | Cn1c(=O)n(C)c2cc(NC(=O)c3ccco3)ccc21 [Example 25, N-(1,3-Dimethyl-2-oxo-benzimidazol-5-yl)furan-2-carboxamide] |
| 103 | CC(=O)N1CCN(C(=O)c2ccc3[nH]c(=O)[nH]c3c2)CC1 [Example 22, 5-(4-Acetylpiperazine-1-carbonyl)-1H-benzo[d]imidazol-2(3H)-one] |
| 54 | Nc1ccccc1Nc1ccc2[nH]c(=O)[nH]c2c1 [Example 6, 5-((2-Aminophenyl)amino)-1H-benzo[d]imidazol-2(3H)-one] |
| 41 | O=c1[nH]c2ccc(CCCc3ccccc3)nc2[nH]1 [Example 26, 5-(3-Phenyl-propyl)-1,3-dihydro-imidazo[4,5-b]pyridin-2-one] |
| 28 | CNC(=O)c1ccc2c(c1)nc(-c1cc(-c3cncn3C)nc3ccccc13)n2-c1ccc2[nH]c(=O)[nH]c2c1 [Example 2, N-Methyl-2-(2-(1-methyl-1H-imidazol-5-yl)quinolin-4-yl)-2′-oxo-2′,3′-dihydro-1′H-[1,5′-bibenzo[d]imidazole]-5-carboxamide] |
| 27 | O=c1[nH]c2ccc(-n3c(-c4ccnc5ccccc45)nc4ccccc43)cc2[nH]1 [Example 7, 2-(Quinolin-4-yl)-1′H-[1,5′-bibenzo[d]imidazol]-2′(3′H)-one] |
| 20 | CC(=O)NC1CCN(C(=O)c2ccc3[nH]c(=O)[nH]c3c2)CC1 [Example 29, N-(1-(2-Oxo-2,3-dihydro-1H-benzo[d]imidazole-5-carbonyl)piperidin-4-yl)acetamide] |
| 19 | CC(C)c1nc2ccccc2n1-c1ccc2c(c1)[nH]c(=O)n2C [Example 34, 2-Isopropyl-1′-methyl-1′,3′-dihydro-2′H-[1,5′-bibenzo[d]imidazol]-2′-one] |
| 16 | CN(C)C(=O)c1ccc2c(c1)nc(-c1cc(-c3cncn3C)nc3ccccc13)n2-c1ccc2[nH]c(=O)[nH]c2c1 [Example 18, N,N-Dimethyl-2-(2-(1-methyl-1H-imidazol-5-yl)quinolin-4-yl)-2′-oxo-2′,3′-dihydro-1′H-[1,5′-bibenzo[d]imidazole]-5-carboxamide] |
| 12 | CNC(=O)c1ccc2c(c1)nc(Cc1cccc(OC)c1)n2-c1ccc2[nH]c(=O)[nH]c2c1 [Example 28, 2-(3-Methoxybenzyl)-N-methyl-2′-oxo-2′,3′-dihydro-1′H-[1,5′-bibenzo[d]imidazole]-5-carboxamide] |
| 8 | CNC(=O)c1ccc2c(c1)nc(-c1ccncc1)n2-c1ccc2[nH]c(=O)[nH]c2c1 [Example 11, N-Methyl-2′-oxo-2-(pyridin-4-yl)-2′,3′-dihydro-1′H-[1,5′-bibenzo[d]imidazole]-5-carboxamide] |
| 7 | CNC(=O)c1ccc2c(c1)nc(C(F)(F)F)n2-c1ccc2[nH]c(=O)[nH]c2c1 [Example 13, N-Methyl-2′-oxo-2-(trifluoromethyl)-2′,3′-dihydro-1′H-[1,5′-bibenzo[d]imidazole]-5-carboxamide] |
| 7 | Cn1cncc1-c1cc(-c2nc3ccccc3n2-c2ccc3c(c2)n(C)c(=O)n3C)c2ccccc2n1 [Example 31, 1′,3′-Dimethyl-2-(2-(1-methyl-1H-imidazol-5-yl)quinolin-4-yl)-1′,3′-dihydro-2′H-[1,5′-bibenzo[d]imidazol]-2′-one] |
| 6 | Cn1cncc1-c1cc(-c2nc3ccccc3n2-c2ccc3[nH]c(=O)[nH]c3c2)c2ccccc2n1 [Example 8, 2-(2-(1-Methyl-1H-imidazol-5-yl)quinolin-4-yl)-1′H-[1,5′-bibenzo[d]imidazol]-2′(3′H)-one] |
| 6 | CC(C)c1nccn1-c1ccc2[nH]c(=O)[nH]c2c1 [Example 32, 5-(2-Isopropyl-1H-imidazol-1-yl)-1,3-dihydro-2H-benzo[d]imidazol-2-one] |
| 5 | Cc1ncc(-c2ccc3[nH]c(=O)[nH]c3c2)s1 [Example 21, 5-(2-Methylthiazol-5-yl)-1H-benzo[d]imidazol-2(3H)-one] |
| 3 | CC(=O)N1CCC(NC(=O)c2ccc3[nH]c(=O)[nH]c3c2)CC1 [Example 23, N-(1-Acetylpiperidin-4-yl)-2-oxo-2,3-dihydro-1H-benzo[d]imidazole-5-carboxamide] |
| 1 | O=c1[nH]c2ccc(-n3ccnc3-c3ccnc4ccccc34)cc2[nH]1 [Example 12, 5-(2-(Quinolin-4-yl)-1H-imidazol-1-yl)-1H-benzo[d]imidazol-2(3H)-one] |
| 1 | O=C(c1ccc2[nH]c(=O)[nH]c2c1)N1CCc2ccccc21 [Example 24, 5-(Indoline-1-carbonyl)-1H-benzo[d]imidazol-2(3H)-one] |
